Reference: ChEMBL document CHEMBL3400148, “Structure-based discovery of small molecule hepsin and HGFA protease inhibitors: Evaluation of potency and selectivity derived from distinct binding pockets” (Bioorg Med Chem, 2015)
Active and inactive are the calls of the source. The calls are words filed in the database; no cut-off is given here.

What was measured:
Serine protease hepsin = Serine protease hepsin (Homo sapiens, UniProt P05981); assay: Inhibition of hepsin (unknown origin) using Boc-QAR-AMC as substrate after 30 mins prior to substrate addition by fluorescence assay
Chain of Serine protease hepsin (P05981 1-162 limits assumed): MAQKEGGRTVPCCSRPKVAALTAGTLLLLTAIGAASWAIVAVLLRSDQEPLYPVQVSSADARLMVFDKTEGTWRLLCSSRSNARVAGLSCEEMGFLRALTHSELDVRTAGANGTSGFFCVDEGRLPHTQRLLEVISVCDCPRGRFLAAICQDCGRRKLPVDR
Chain of Serine protease hepsin (P05981 163-417 limits assumed): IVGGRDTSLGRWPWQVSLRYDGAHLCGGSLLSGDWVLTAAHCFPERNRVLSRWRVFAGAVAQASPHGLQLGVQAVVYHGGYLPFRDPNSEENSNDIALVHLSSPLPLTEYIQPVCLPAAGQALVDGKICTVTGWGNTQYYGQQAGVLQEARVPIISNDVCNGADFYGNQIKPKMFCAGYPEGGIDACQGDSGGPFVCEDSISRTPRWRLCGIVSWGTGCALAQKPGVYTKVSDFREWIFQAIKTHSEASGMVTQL

[1] = molecular target: T1, Hepatocyte growth factor activator serine protease (Homo sapiens) (UniProt Q04756); assay: Inhibition of recombinant N-terminal His-tagged HGFA (unknown origin) expressed in baculovirus-infected Sf9 cells using Boc-QLR-AMC as substrate up to 20 uM incubated for 30 mins prior to substrate addition by fluorescence assay
T1 sequence (whole entry): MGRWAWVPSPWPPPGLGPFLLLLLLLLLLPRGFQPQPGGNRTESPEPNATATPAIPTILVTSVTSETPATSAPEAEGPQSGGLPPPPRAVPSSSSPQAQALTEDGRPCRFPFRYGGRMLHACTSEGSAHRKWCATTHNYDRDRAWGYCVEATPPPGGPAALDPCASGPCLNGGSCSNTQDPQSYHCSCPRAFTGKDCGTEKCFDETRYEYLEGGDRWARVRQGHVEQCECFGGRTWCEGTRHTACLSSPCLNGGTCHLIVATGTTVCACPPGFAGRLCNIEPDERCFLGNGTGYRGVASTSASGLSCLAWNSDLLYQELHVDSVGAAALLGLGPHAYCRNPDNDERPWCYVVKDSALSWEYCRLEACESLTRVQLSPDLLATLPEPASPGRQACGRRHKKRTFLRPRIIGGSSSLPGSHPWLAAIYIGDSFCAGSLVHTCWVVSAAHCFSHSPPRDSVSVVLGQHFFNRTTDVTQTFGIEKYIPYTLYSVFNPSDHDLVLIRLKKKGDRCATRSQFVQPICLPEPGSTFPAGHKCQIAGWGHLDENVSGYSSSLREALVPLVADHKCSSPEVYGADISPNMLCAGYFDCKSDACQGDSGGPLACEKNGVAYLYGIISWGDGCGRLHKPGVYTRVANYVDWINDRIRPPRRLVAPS

[2] = molecular target: T2, Hepatocyte growth factor activator serine protease (Homo sapiens, UniProt Q04756); assay: Inhibition of recombinant N-terminal His-tagged HGFA (unknown origin) expressed in baculovirus-infected Sf9 cells incubated for 30 mins prior to cromogenic substrate addition by spectrophotometry
T2 sequence (Q04756 whole entry): T1 sequence (whole entry)

[3] = molecular target: T2, Hepatocyte growth factor activator serine protease; assay: Inhibition of recombinant N-terminal His-tagged HGFA (unknown origin) expressed in baculovirus-infected Sf9 cells using Boc-QLR-AMC as substrate incubated for 30 mins prior to substrate addition by fluorescence assay
[4] = molecular target: T3, Suppressor of tumorigenicity 14 protein (Homo sapiens, UniProt Q9Y5Y6); assay: Inhibition of matripase (unknown origin) using Boc-QAR-AMC as substrate incubated for 30 mins prior to substrate addition by fluorescence assay
T3 sequence (Q9Y5Y6 whole entry): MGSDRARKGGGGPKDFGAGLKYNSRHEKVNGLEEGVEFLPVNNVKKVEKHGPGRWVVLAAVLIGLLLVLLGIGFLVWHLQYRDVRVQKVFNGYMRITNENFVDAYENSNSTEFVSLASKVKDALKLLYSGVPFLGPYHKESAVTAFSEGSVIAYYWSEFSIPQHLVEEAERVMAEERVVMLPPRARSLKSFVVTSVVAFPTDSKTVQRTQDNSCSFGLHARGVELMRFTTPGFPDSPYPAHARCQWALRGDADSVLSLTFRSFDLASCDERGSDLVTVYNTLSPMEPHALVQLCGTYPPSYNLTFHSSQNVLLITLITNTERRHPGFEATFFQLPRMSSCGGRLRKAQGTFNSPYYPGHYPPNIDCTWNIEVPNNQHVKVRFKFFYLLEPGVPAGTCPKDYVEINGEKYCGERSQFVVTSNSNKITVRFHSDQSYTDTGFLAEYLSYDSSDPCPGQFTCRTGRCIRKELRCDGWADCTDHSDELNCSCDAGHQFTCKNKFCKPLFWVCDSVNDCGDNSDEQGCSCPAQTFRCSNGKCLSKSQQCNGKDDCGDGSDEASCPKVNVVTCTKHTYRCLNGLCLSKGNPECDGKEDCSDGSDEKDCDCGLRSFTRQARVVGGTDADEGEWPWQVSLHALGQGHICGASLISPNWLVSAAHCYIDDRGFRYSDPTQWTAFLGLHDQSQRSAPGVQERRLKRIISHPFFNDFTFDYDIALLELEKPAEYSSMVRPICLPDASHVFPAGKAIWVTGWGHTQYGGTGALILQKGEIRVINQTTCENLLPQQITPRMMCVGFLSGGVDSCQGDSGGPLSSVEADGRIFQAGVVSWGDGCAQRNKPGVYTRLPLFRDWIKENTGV

[5] = molecular target: T2, Hepatocyte growth factor activator serine protease; assay: Inhibition of HGFA (unknown origin) after 40 mins by Eadie-Hofstee plot analysis

Row | Ki (Serine protease hepsin) [nM] | IC50 [2] [nM] | Ki [4] [nM] | Compound | also measured
1 | 1200 |  |  | CCCCCCNC(=O)N1CCN(C(=O)[C@H](Cc2cccc(C(=N)N)c2)NS(=O)(=O)c2ccc3ccccc3c2)CC1 | 
2 |  |  |  | Cc1ccc(S(=O)(=O)N[C@@H](CCCCN)C(=O)CCl)cc1 | inhibition [1]: inactive
3 |  | > 50000 |  | Cc1ccc(S(=O)(=O)Nc2ccc(NC(=N)N)cc2)cc1 | 
4 | 553 |  | 7180 | CCc1cc(C(Nc2ccc(C(=N)N)cc2)C(=O)NS(=O)(=O)c2cn(C)cn2)cc2c(C)coc12 (racemic) | Ki [3]: 7100 nM
5 |  | 3000 |  | N=C(N)Nc1ccc(C(=O)Oc2cccc([N+](=O)[O-])c2)cc1 | 
6 | 4700 |  | 480 | Cc1ccc(S(=O)(=O)N[C@@H](Cc2cccc(C(=N)N)c2)C(=O)N2CCC(c3ccccc3)CC2)cc1 | 
7 |  |  |  | CCc1cc([C@@H](Nc2ccc(C(=N)N)cc2)C(=O)NS(=O)(=O)c2cn(C)cn2)cc2c(C)coc12 | Ki [5]: 590 nM
8 | 670 |  | 2500 | Cc1ccc(S(=O)(=O)N[C@@H](Cc2cccc(C(=N)N)c2)C(=O)N2CCN(C(=O)NCCc3ccccc3)CC2)cc1 | Ki [3]: > 50000 nM
9 | 3500 |  | 1500 | N=C(N)c1cccc(C[C@H](NS(=O)(=O)c2ccc3ccccc3c2)C(=O)N2CCN(C(=O)c3csc4ccccc34)CC2)c1 | 
10 |  | 1100 |  | COC(=O)c1ccc(OC(=O)c2ccc(NC(=N)N)cc2)cc1 | 
11 |  |  | 2600 | N=C(N)c1cccc(C[C@H](NS(=O)(=O)c2ccc3ccccc3c2)C(=O)N2CCN(C(=O)NCc3ccccc3)CC2)c1 | 
12 |  | 6800 |  | N=C(N)Nc1ccc(C(=O)Oc2ccc(C(N)=O)cc2)cc1 | 
13 |  | 300 |  | N=C(N)Nc1ccc(C(=O)Oc2ccc([N+](=O)[O-])cc2Cl)cc1 | 
14 |  | > 50000 |  | N=C(N)Nc1ccc(C(=O)Nc2ccccc2)cc1 | 
15 |  |  | 1200 | Cc1ccc(S(=O)(=O)N[C@@H](Cc2cccc(C(=N)N)c2)C(=O)N2CCC[C@H](NC(=O)OCc3ccccc3)C2)cc1 | 
16 |  |  | 4600 | N=C(N)c1cccc(C[C@H](NS(=O)(=O)c2ccc3ccccc3c2)C(=O)N2CCN(C(=O)NCc3ccc(Br)cc3)CC2)c1 | 
17 |  | > 50000 |  | COC(=O)c1ccc2cc(NS(=O)(=O)c3ccc(NC(=N)N)cc3)ccc2c1 | 
18 |  | > 50000 |  | N=C(N)Nc1ccc(NC(=O)c2ccccc2)cc1 | 
19 | 1580 |  | 4.3 | CC(C)c1cc(C(C)C)c(S(=O)(=O)N[C@@H](Cc2cccc(C(=N)N)c2)C(=O)N2CCN(C(=O)C3CCN(C(=N)N)CC3)CC2)c(C(C)C)c1 | Ki [3]: 17000 nM
20 | 7400 |  |  | CC(C)c1cc(C(C)C)c(S(=O)(=O)N[C@@H](Cc2cccc(C(=N)N)c2)C(=O)N2CCN(C(=O)C3CCNCC3)CC2)c(C(C)C)c1 | Ki [3]: 5500 nM
21 |  | 820 |  | N=C(N)Nc1ccc(C(=O)Oc2ccc([N+](=O)[O-])cc2)cc1 | 
22 | 835 |  |  | [H]/N=C(/N)c1ccc(NCc2nc3cc(C(=O)N(CCC(=O)O)c4ccccn4)ccc3n2C)cc1 [DABIGATRAN] | 
23 |  |  | 3350 | O=C(NC[C@H]1CN(c2ccc(N3CCOCC3=O)cc2)C(=O)O1)c1ccc(Cl)s1 [RIVAROXABAN] | 
24 |  | 150 |  | N=C(N)c1ccc2cc(OC(=O)c3ccc(N=C(N)N)cc3)ccc2c1 [NAFAMOSTAT] | 
25 | 2600 |  | 6700 | N=C(N)c1cccc(C[C@H](NS(=O)(=O)c2ccc3ccccc3c2)C(=O)N2CCC[C@@H](NC(=O)OCc3ccccc3)C2)c1 | 
26 |  | 600 |  | COC(=O)c1ccc2cc(OC(=O)c3ccc(NC(=N)N)cc3)ccc2c1 | 
27 |  | 32000 |  | CN(C)C(=O)COC(=O)Cc1ccc(OC(=O)c2ccc(NC(=N)N)cc2)cc1 [CAMOSTAT] | 
